In US6737383B1, “Herbicidal oxadiazolidines” (priority 1999, dated 2004):

Legend:
velvetleaf = test: Test A velvetleaf; type: in vivo, Abutilon theophrasti; details: 0 to 10 scale where 0 is no effect and 10 is complete control
Procedure, shortened: (§1)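 Visual injury score, 0 (no effect) to 10 (complete control), vs untreated controls at ~11 d in greenhouse. Pre: soil drench on sandy loam. Post: spray to runoff, 1–2 leaf stage.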

barnyardgrass = test: Test A barnyardgrass; type: in vivo, Echinochloa crus-galli; details: 0 to 10 scale where 0 is no effect and 10 is complete control
Procedure, shortened: as §1

crabgrass = test: Test A crabgrass; type: in vivo, Digitaria spp.; details: 0 to 10 scale where 0 is no effect and 10 is complete control
Procedure, shortened: as §1

purple nutsedge = test: Test D purple nutsedge; type: in vivo, Cyperus rotundus; details: Preemergence, 0 to 100 scale
Procedure, shortened: (§2)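 Herbicide screen in the greenhouse. A non-phytotoxic solvent mixture with surfactant carried the test chemical; in pre-emergence tests it went onto the soil of pots seeded no more than a day earlier. Injury was scored by eye 14 to 21 days after application, 0 to 100.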

common ragweed = test: Test D common ragweed; type: in vivo, Ambrosia elatior; details: Preemergence, 0 to 100 scale
Procedure, shortened: as §2

common pursiane = test: Test D common purslane; type: in vivo, Portulaca oleracea; details: Preemergence, 0 to 100 scale
Source text: (§3) Seeds, tubers, or plant parts of Alexandergrass (Brachiaria plantaginea), bermuda-grass (Cynodon dactylon), common pursiane (Portulaca oleracea), common ragweed (Ambrosia elatior), common groundsel (Senecio vulgaris), dallisgrass (Paspalum dilatatum), goosegrass (Eleusine indica), guineagrass (Panicum maximum), itchgrass (Rottboellia exaltata), Johnson grass (Sorghum halepense), large crabgrass (Digitaria sanguinalis), pitted morningglory (Ipomoea lacunosa), purple nutsedge (Cyperus rotundus), sandbur (Cenchrus echinatus), sourgrass (Trichachne insularis), Spanishneedles (Bidens bipinnata), surinam grass (Brachiaria decumbens) and tall mallow (Malva sylvestris) were planted into greenhouse pots of flats containing greenhouse planting medium. Plant species were grown in separate pots or individual compartments. Preemergence applications were made within one day of planting the seed or plant part.
(§4) Test chemicals were formulated in a non-phytotoxic solvent mixture which included a surfactant and applied preemergence to the surface of the pot containing seeds in a sandy loam soil. Untreated control pots and treated pots were placed in the greenhouse for growth and visually evaluated for injury 14 to 21 days after herbicide application. Plant response ratings, summarized in Table C, are based on a 0 to 100 scale where 0 is no injury and 100 is complete control. A dash (−) response means no test result.

Alexandergrass = test: Test D Alexandergrass; type: in vivo, Brachiaria plantaginea; details: Preemergence, 0 to 100 scale
Procedure, shortened: as §2

bermuda-grass = test: Test D bermudagrass; type: in vivo, Cynodon dactylon; details: Preemergence, 0 to 100 scale
Source text: as §3, §4

large crabgrass = test: Test D large crabgrass; type: in vivo, Digitaria sanguinalis; details: Preemergence, 0 to 100 scale
Procedure, shortened: as §2

surinam grass = test: Test D surinam grass; type: in vivo, Brachiaria decumbens; details: Preemergence, 0 to 100 scale
Source text: as §3, §4

itchgrass = test: Test D itchgrass; type: in vivo, Rottboellia exaltata; details: Preemergence, 0 to 100 scale
Source text: as §3, §4

dallisgrass = test: Test D dallisgrass; type: in vivo, Paspalum dilatatum; details: Preemergence, 0 to 100 scale
Source text: as §3, §4

Johnson grass = test: Test D Johnson grass; type: in vivo, Sorghum halepense; details: Preemergence, 0 to 100 scale
Procedure, shortened: as §2

guineagrass = test: Test D guineagrass; type: in vivo, Panicum maximum; details: Preemergence, 0 to 100 scale
Procedure, shortened: as §2

pitted morningglory = test: Test D pitted morningglory; type: in vivo, Ipomoea lacunosa; details: Preemergence, 0 to 100 scale
Source text: as §3
Test chemicals were formulated in a non-phytotoxic solvent mixture which included a surfactant and applied preemergence to the surface of the pot containing seeds in a sandy loam soil. Untreated control pots and treated pots were placed in the greenhouse for growth and visually evaluated for injury 14 to 21 days after herbicide application. […] A dash (−) response means no test result.

[1] = Rate 32 g/ha, 0 no injury, 100 complete control
[2] = Rate 64 g/ha, 0 no injury, 100 complete control
[3] = Rate 125 g/ha, 0 no injury, 100 complete control
[4] = Rate 16 g/ha, 0 no injury, 100 complete control

CCN(CC)C(=O)n1oc(=O)n(-c2ccc(F)cc2)c1=O [Compound 3]
9: Plant response rating, Barnyardgrass (barnyardgrass; Pre-emergence, Rate 2000 g/ha)
3: Plant response rating, Crabgrass (crabgrass; Pre-emergence, Rate 2000 g/ha)
6: Plant response rating, Barnyardgrass (barnyardgrass; Postemergence, Rate 1000 g/ha)
0: Plant response rating, Velvetleaf (velvetleaf; Postemergence, Rate 1000 g/ha) | Plant response rating, Velvetleaf (velvetleaf; Pre-emergence, Rate 2000 g/ha) | Plant response rating, Crabgrass (crabgrass; Postemergence, Rate 1000 g/ha)

Cc1ccc(-n2c(=O)on(C(=O)N(c3ccc(F)cc3F)C(C)C)c2=O)c(C)c1 [Compound 24]
98: Plant response rating, Alexandergrass (Alexandergrass; Rate 500 g/ha) | Plant response rating, Bermudagrass (bermuda-grass; [3]) | Plant response rating, Dallisgrass (dallisgrass; [3]) | Plant response rating, Dallisgrass (dallisgrass; Rate 250 g/ha) | Plant response rating, Guineagrass (guineagrass; Rate 250 g/ha)
75: Plant response rating, Bermudagrass (bermuda-grass; [1]) | Plant response rating, Guineagrass (guineagrass; [2])
60: Plant response rating, Guineagrass (guineagrass; [1])
85: Plant response rating, Johnsongrass (Johnson grass; Rate 250 g/ha) | Plant response rating, Johnsongrass (Johnson grass; Rate 500 g/ha)
90: Plant response rating, Guineagrass (guineagrass; [3])
0: Plant response rating, Purple nutsedge (purple nutsedge; [1]) | Purple nutsedge plant response rating (purple nutsedge; [2]) | Purple nutsedge plant response rating (purple nutsedge; [3]) | Plant response rating, Purple nutsedge (purple nutsedge; Rate 250 g/ha) | Plant response rating, Purple nutsedge (purple nutsedge; Rate 500 g/ha) | Plant response rating, C. ragweed (common ragweed; [1]) | Plant response rating, C. ragweed (common ragweed; [2]) | Plant response rating, C. ragweed (common ragweed; [3]) | Plant response rating, C. ragweed (common ragweed; Rate 250 g/ha) | Plant response rating, C. ragweed (common ragweed; Rate 500 g/ha) | Plant response rating, C. purslane (common pursiane; [1]) | Plant response rating, C. purslane (common pursiane; [2]) | Plant response rating, C. purslane (common pursiane; [3]) | Plant response rating, C. purslane (common pursiane; Rate 250 g/ha) | Plant response rating, C. purslane (common pursiane; Rate 500 g/ha) | Plant response rating, Johnsongrass (Johnson grass; [1]) | Plant response rating, Johnsongrass (Johnson grass; [2]) | Plant response rating, Johnsongrass (Johnson grass; [3]) | Plant response rating, P. morninglory (pitted morningglory; [1]) | Plant response rating, P. morninglory (pitted morningglory; [2]) | Plant response rating, P. morninglory (pitted morningglory; [3]) | Plant response rating, P. morninglory (pitted morningglory; Rate 250 g/ha) | Plant response rating, P. morninglory (pitted morningglory; Rate 500 g/ha)
65: Plant response rating, Alexandergrass (Alexandergrass; Rate 250 g/ha) | Plant response rating, Surinam grass (surinam grass; Rate 500 g/ha)
95: Plant response rating, Bermudagrass (bermuda-grass; [2])
10: Plant response rating, Alexandergrass (Alexandergrass; [1]) | Plant response rating, Alexandergrass (Alexandergrass; [2]) | Plant response rating, Alexandergrass (Alexandergrass; [3]) | Plant response rating, Surinam grass (surinam grass; [1]) | Surinam grass plant response rating (surinam grass; [2]) | Surinam grass plant response rating (surinam grass; [3]) | Plant response rating, Surinam grass (surinam grass; Rate 250 g/ha)
40: Plant response rating, Itchgrass (itchgrass; [1]) | Plant response rating, Itchgrass (itchgrass; [2]) | Plant response rating, Itchgrass (itchgrass; [3]) | Plant response rating, Itchgrass (itchgrass; Rate 250 g/ha) | Plant response rating, Itchgrass (itchgrass; Rate 500 g/ha)
30: Plant response rating, Dallisgrass (dallisgrass; [1]) | Plant response rating, Dallisgrass (dallisgrass; [2])
100: Plant response rating, Bermudagrass (bermuda-grass; Rate 250 g/ha) | Plant response rating, Bermudagrass (bermuda-grass; Rate 500 g/ha) | Plant response rating, Large crabgrass (large crabgrass; [3]) | Plant response rating, Large crabgrass (large crabgrass; Rate 250 g/ha) | Plant response rating, Large crabgrass (large crabgrass; Rate 500 g/ha) | Plant response rating, Dallisgrass (dallisgrass; Rate 500 g/ha) | Plant response rating, Guineagrass (guineagrass; Rate 500 g/ha)
70: Plant response rating, Large crabgrass (large crabgrass; [1]) | Plant response rating, Large crabgrass (large crabgrass; [2])

CC(C)N(C(=O)n1oc(=O)n(C(C)C)c1=O)c1ccccc1 [Compound 113]
98: Plant response rating, Alexandergrass (Alexandergrass; [2]) | Plant response rating, Alexandergrass (Alexandergrass; [3]) | Plant response rating, Bermudagrass (bermuda-grass; [4]) | Surinam grass plant response rating (surinam grass; [2])
90: Plant response rating, Surinam grass (surinam grass; [1]) | Plant response rating, Johnsongrass (Johnson grass; [3])
85: Plant response rating, Alexandergrass (Alexandergrass; [1]) | Plant response rating, Large crabgrass (large crabgrass; [4]) | Plant response rating, Surinam grass (surinam grass; [4]) | Plant response rating, Guineagrass (guineagrass; [4])
0: Plant response rating, Purple nutsedge (purple nutsedge; [4]) | Plant response rating, Purple nutsedge (purple nutsedge; [1]) | Plant response rating, C. ragweed (common ragweed; [4]) | Plant response rating, C. ragweed (common ragweed; [1]) | Plant response rating, C. ragweed (common ragweed; [2]) | Plant response rating, C. ragweed (common ragweed; [3]) | Plant response rating, C. purslane (common pursiane; [4]) | Plant response rating, C. purslane (common pursiane; [1]) | Plant response rating, C. purslane (common pursiane; [2]) | Plant response rating, C. purslane (common pursiane; [3]) | Plant response rating, Dallisgrass (dallisgrass; [4]) | Plant response rating, Johnsongrass (Johnson grass; [4])
40: Plant response rating, Itchgrass (itchgrass; [1])
100: Plant response rating, Bermudagrass (bermuda-grass; [1]) | Plant response rating, Bermudagrass (bermuda-grass; [2]) | Plant response rating, Bermudagrass (bermuda-grass; [3]) | Plant response rating, Large crabgrass (large crabgrass; [1]) | Plant response rating, Large crabgrass (large crabgrass; [2]) | Plant response rating, Large crabgrass (large crabgrass; [3]) | Surinam grass plant response rating (surinam grass; [3]) | Plant response rating, Dallisgrass (dallisgrass; [2]) | Plant response rating, Dallisgrass (dallisgrass; [3]) | Plant response rating, Guineagrass (guineagrass; [1]) | Plant response rating, Guineagrass (guineagrass; [2]) | Plant response rating, Guineagrass (guineagrass; [3])
50: Plant response rating, Itchgrass (itchgrass; [2])
80: Plant response rating, Johnsongrass (Johnson grass; [2])
20: Purple nutsedge plant response rating (purple nutsedge; [2])
65: Plant response rating, Alexandergrass (Alexandergrass; [4])
30: Purple nutsedge plant response rating (purple nutsedge; [3])
10: Plant response rating, Itchgrass (itchgrass; [4]) | Plant response rating, P. morninglory (pitted morningglory; [4]) | Plant response rating, P. morninglory (pitted morningglory; [1]) | Plant response rating, P. morninglory (pitted morningglory; [2]) | Plant response rating, P. morninglory (pitted morningglory; [3])
60: Plant response rating, Itchgrass (itchgrass; [3]) | Plant response rating, Johnsongrass (Johnson grass; [1])
95: Plant response rating, Dallisgrass (dallisgrass; [1])

C=CCn1c(=O)on(C(=O)N(c2ccc(F)cc2F)C2CC2)c1=O [Compound 127]
0: Plant response rating, Velvetleaf (velvetleaf; Postemergence, Rate 1000 g/ha) | Plant response rating, Velvetleaf (velvetleaf; Pre-emergence, Rate 2000 g/ha)
7: Plant response rating, Crabgrass (crabgrass; Postemergence, Rate 1000 g/ha)
8: Plant response rating, Crabgrass (crabgrass; Pre-emergence, Rate 2000 g/ha)
6: Plant response rating, Barnyardgrass (barnyardgrass; Postemergence, Rate 1000 g/ha)
9: Plant response rating, Barnyardgrass (barnyardgrass; Pre-emergence, Rate 2000 g/ha)
